Results published in patent US20170102398A1, “PREDICTING AND REDUCING COGNITIVE DECLINE BASED ON GSK-3 LEVELS” (HUMANETICS CORPORATION, priority 2014, published 2017).

What was measured:
solubility in water = format: physicochemical
From the text: In some embodiments, the D-pinitol can be a component of a dietary supplement or a medical food (e.g., in combination with an edible oil), or a food for special dietary use. Medical foods are, by definition, formulated to be consumed or administered enterally under the supervision of a physician or other medical professional. The manufacture of medical foods typically is done in compliance with FDA Good Manufacturing Practices (GMP) requirements. The term “food for special dietary use” is defined by 21 C.F.R. §105.3, as applied to food for humans, as meaning • particular (as distinguished from general) uses of food, as follows: • (i) Uses for supplying particular dietary needs which exist by reason of a physical, physiological, pathological or other condition, including but not limited to the conditions of diseases, convalescence, pregnancy, lactation, allergic hypersensitivity to food, underweight, and overweight; • (ii) Uses for supplying particular dietary needs which exist by reason of age, including but not limited to the ages of infancy and childhood; • (iii) Uses for supplementing or fortifying the ordinary or usual diet with any vitamin, mineral, or other dietary property. Any such particular use of a food is a special dietary use, regardless of whether such food also purports to be or is represented for general use. […]

[1] = subjects with insulin resistance, dosed daily with 20 mg/kg for 28 days; cited from earlier work
[2] = phase I safety and pharmacokinetic study in AD subjects; format: in vivo, human
Procedure: (§1) Additional studies of D-pinitol's safety and efficacy included mutagenicity (AMES) tests, which were negative. […] In a phase I safety and pharmacokinetic study of D-pinitol in AD subjects, the time to peak plasma levels was about 90 minutes after administration, and the elimination half-life (t1/2) was 10 hours.

[3] = mutagenicity (AMES) tests
Procedure: as §1

rats = assay: acute toxicity studies in rats; format: in vivo, rat
Procedure: as §1

In the case of CO[C@H]1[C@H](O)[C@@H](O)[C@@H](O)[C@H](O)[C@@H]1O [D-pinitol, 3-O-methyl-D-chiro-inositol], the solubility in water (solubility in water) is listed as “soluble in water”, the “increase in plasma D-pinitol concentration as compared to baseline” value [1] is listed as 48 fold and the “elimination half-life (t1/2)” value [2] is listed as 10 h. The “time to peak plasma levels” value ([2]; after administration) was “about 90 minutes”, the “mutagenicity (AMES) tests” value [3] was “negative” and the LD50 (rats) was over 2000 mg/kg.
